Measurements: patent US6541480B2, “1-aryl-1,8-naphthylidin-4-one derivative as type IV phosphodiesterase inhibitor” (Suntory Limited, priority 1997, dated 2003)
Where a name gives a salt, the structure may show the parent alone.

Columns and labels:
[1] = system: type IV phosphodiesterase; test: Type IV phosphodiesterase inhibiting activity (3H-cAMP hydrolysis, PDE IV fraction from U937 cells); type: biochemical; details: PDE IV fraction from human U937 cells, 30° C., 30 minutes
Protocol: (1) Method of Measurement of Type IV Phosphodiesterase Inhibiting Activity
The following assay was used to evaluate the ability of the compound of the present invention to suppress type IV phosphodiesterase, according to Biochemical.
1) Type IV phosphodiesterase activity fractions were prepared as follows. Human histiocytic lymphoma cell line U937 was cultured in an RPMI1640 medium containing 10% fetal calf serum to obtain 10^9 cells of U937. The cells were recovered by centrifugation and suspended in 40 ml of buffer A (20 mM bis-tris, 5 mM 2-mercaptoethanol, 2 mM benzamidine, 2 mM EDTA, 0.1 mM 4-(2-aminoethyl)benzensulfonyl hydrochloride, 50 mM sodium acetate, pH=6.5). The cells were broken by a sonication and centrifuged (4° C., 10,000G, 10 minutes) to obtain a supernatent. This was filtered by a 0.45 μm filter to obtain the soluble fraction.
The soluble fraction obtained was applied into a 1×10 cm DEAE Sepharose column equalibrated with the buffer A. 120 ml of the buffer A containing a linear gradient solution of 0.05 to 1 M sodium acetate was used to separate the phosphodiesterase and recover 24 5-ml fractions. Each of the fractions was measured for the cAMP phosphodiesterase activity.
2) The test compound was reacted at a desired concentration in a reaction mixture containing 20 mM tris-HCl (pH 7.5), 1 mM MgCl2, 100 μM EDTA, 330 μg/ml calf serum albumin, 10 μg/ml 5′-nucleotidase, 0.4 μCi ^3H-cAMP ([…] cAMP) and the type IV phosphodiesterase stored solution at 30° C. for 30 minutes. QAE-Sephadex suspended in 10 mM of hepes-Na (pH-7.0) was added to the reaction mixture which was then allowed to stand for 5 minutes, then the supernatant was obtained, QAE-Sephadex was further added, to the supernatant, and was allowed to stand for 5 minutes, then the supernatant was obtained and measured for radioactivity.

[2] = system: TNF-α production by LPS stimulated mouse peritoneal macrophages; test: TNF-α production inhibitory activity by LPS stimulated macrophages (ELISA); type: cell-based; details: LPS 10 μg/ml, 8 hours
Protocol: (1) Method of Measurement of TNF-α Production Inhibitory Activity by LPS Stimulated Macrophages
The following assay was used to evaluate the ability of the compound of the present invention to suppress TNF-α production by LPS stimulated macrophages according to Immuno pharmacol. 29, 121-127 (1995).
1) 6 to 10 week old female BALB/c mice were used, 2 ml portions of thioglycolate were intraperitoneally administered, and the abdominal cavities were washed by 10 ml of PBS after 4 days, whereby 1 to 2×10^7 peritoneal cells were obtained per mouse. These were suspended in a hemocyte solution (0.75% ammonium chloride, 17 mM tris-hydrochlorate buffer, pH7.2), centrifuged, then resuspended in an RPMI1640 medium including 10% fetal calf serum and seeded in a 96-well cell culture plate at a density of 1×10^5 cells/50 μl/well. Since these cells adhered strongly to the tissue culture plate and were positive in nonspecific esterase staining, they were used for the test as mouse peritoneal macrophages. Mouse peritoneal macrophages were precultured overnight at 37° C. in 5% CO2 for the experiment.
2) E. Coli (serum type 055:B5) derived LPS was dissolved in PBS in a concentration of 1 mg/ml, then sterilized by filtration. The test compound was dissolved in DMSO to make a 1000-fold concentration solution of the final concentration of use. 10 μl of the above LPS stock solution (final concentration 10 μg/ml) and 1 μl of the tested substance stock solution were added and mixed in 0.5 ml of RPMI1640 medium containing 10% fetal calf serum. This was added to the above cells at 50 μl/well and cultured for 8 hours. The cultured supernatant was recovered from each well and the TNF-α concentration was measured by the ELISA method (Cytoscreen® Immunoassay Kit Mouse TNF-α, BioSource International).

Row | IC50 [1] | IC50 ([2]; Peritoneal macrophage) | IC50 [2] | SMILES
1 | 99 nM | – | – | Cc1ccc(-n2cc(C(=O)Nc3ccncc3)c(=O)c3cccnc32)cc1 [Example 120, N-(4-Pyridyl)-1-(4-tolyl)-1,4-dihydro[1,8]naphthylidin-4-one-3-carboxamide]
2 | 150 nM | – | – | CNC(=O)c1cn(-c2ccc(F)cc2)c2ncccc2c1=O [Example 52, 1-(4-Fluorophenyl)-N-methyl-1,4-dihydro[1,8]naphthylidin-4-one-3-carboxamide]
3 | 390 nM | 1000 nM | – | O=C(NCc1ccccc1)c1cn(-c2ccc(F)cc2)c2ncccc2c1=O [Example 61, N-benzyl-1-(4-fluorophenyl)-1,4-dihydro[1,8]naphthylidin-4-one-3-carboxamide]
4 | 27 nM | 10 nM | – | CC(C)NC(=O)c1cn(-c2ccc(F)cc2)c2ncccc2c1=O [Example 53, 1-(4-Fluorophenyl)-N-isopropyl-1,4-dihydro[1,8]naphthylidin-4-one-3-carboxamide]
5 | 31 nM | 100 nM | – | CC(C)CNC(=O)c1cn(-c2ccc(F)cc2)c2ncccc2c1=O [Example 55, 1-(4-Fluorophenyl)-N-isobutyl-1,4-dihydro[1,8]naphthylidin-4-one-3-carboxamide]
6 | 520 nM | 1000 nM | – | O=C(Nc1ccncn1)c1cn(-c2ccc(F)cc2)c2ncccc2c1=O [Example 107, 1-(4-Fluorophenyl)-N-(4-pyrimidyl)-1,4-dihydro[1,8]naphthylidin-4-one-3-carboxamide]
7 | 420 nM | 420 nM | – | O=C(NCCO)c1cn(-c2ccc(F)cc2)c2ncccc2c1=O [Example 58, 1-(4-Fluorothenyl)-N-(2-hydroxyethyl)-1,4-dihydro[1,8]naphthylidin-4-one-3-carboxamide]
8 | 140 nM | 150 nM | – | Nc1ccc(-n2cc(C(=O)Nc3ccncc3)c(=O)c3cccnc32)cn1 [Example 143, 1-(2-Aminopyridin-5-yl)-N-(4-pyridyl)-1,4-dihydro[1,8]naphthylidin-4-one-3-carboxamide hydrochloride]
9 | 400 nM | – | – | O=C(Nc1ccncc1)c1cn(-c2ccc(O)nc2)c2ncccc2c1=O [Example 145, 1-(2-Hydroxypyridin-5-yl)-N-(4-pyridyl)-1,4-dihydro[1,8]naphthylidin-4-one-3-carboxamide]
10 | 710 nM | 1000 nM | – | O=C(NC1CCCCC1)c1cn(-c2ccc(F)cc2)c2ncccc2c1=O [Example 57, N-cyclohexyl-1-(4-fluorophenyl)-1,4-dihydro[1,8]naohthylidin-4-one-3-carboxamide]
11 | 32 nM | 400 nM | – | O=C(O)c1cccc(NC(=O)c2cn(-c3ccc(F)cc3)c3ncccc3c2=O)c1 [Example 86, 3-[{[1-(4-Fluorophenyl)-1,4-dihydro[1,8]naohthylidin-4-one-3-yl]carbonyl}amino]benzoic Acid]
12 | 0.8 nM | 0.5 nM | – | O=C(Nc1c(Cl)cncc1Cl)c1cn(-c2ccc(Cl)cc2)c2ncccc2c1=O [Example 125, 1-(4-Chlorophenyl)-N-(3,5-dichloropyridin-4-yl)-1,4-dihydro[1,8]naphthylidin-4-one-3-carboxamide]
13 | 470 nM | – | – | N=C(N)c1cccc(NC(=O)c2cn(-c3ccc(F)cc3)c3ncccc3c2=O)c1 [Example 97, N-(benzamidin-3-yl)-1-(4-fluorophenyl)-1,4-dihydro[1,8]naphthylidin-4-one-3-carboxamide hydrochloride]
14 | 940 nM | – | – | O=C(Nc1ccncc1)c1cn(-c2cccc3cccnc23)c2ncccc2c1=O [Example 149, 1-(8-Quinonyl)-N-(4-pyridyl)-1,4-dihydro[1,8]naphthylidin-4-one-3-carboxamide]
15 | 590 nM | – | – | O=C(Nc1cccnc1)c1cn(-c2ccccn2)c2ncccc2c1=O [Example 131, 1-(2-Pyridyl)-N-(3-pyridyl)-1,4-dihydro[1,8]naphthylidin-4-one-3-carboxamide]
16 | 110 nM | – | – | O=C(Nc1ccncc1)c1cn(-c2ccc(Cl)cc2)c2ncccc2c1=O [Example 124, 1-(4-Chlorophenyl)-N-(4-pyridyl)-1,4-dihydro[1,8]naphthylidin-4-one-3-carboxamide]
17 | 600 nM | – | – | CCOC(=O)c1cn(-c2cccc(C(C)=O)c2)c2ncccc2c1=O [Example 24, Ethyl 1-(3-Acetophenyl)-1,4-dihydro[1,8]naphthylidin-4-one-3-carboxylate]
18 | 1200 nM | – | – | O=C(NCc1cccnc1)c1cn(-c2ccc(F)cc2)c2ncccc2c1=O [Example 63, 1-(4-Fluorophenyl)-N-(3-pyridyl)methyl-1,4-dihydro[1,8]naphthylidin-4-one-3-carboxamide]
19 | 260 nM | – | – | N=C(N)c1cccc(-n2cc(C(=O)Nc3ccncc3)c(=O)c3cccnc32)c1 [Example 130, 1-(Benzamidin-3-yl)-N-(4-pyridyl)-1,4-dihydro[1,8]naphthylidin-4-one-3-carboxamide]
20 | 550 nM | – | – | CCOC(=O)c1cccc(NC(=O)c2cn(-c3ccc(F)cc3)c3ncccc3c2=O)c1 [Example 85, Ethyl 3-[{[1-(4-Fluorophenyl)-1,4-dihydro[1,8]naphthylidin-4-one-3-yl]carbonyl}amino]benzoate]
21 | 1600 nM | – | – | O=C(NCc1ccccn1)c1cn(-c2ccc(F)cc2)c2ncccc2c1=O [Example 62, 1-(4-Fluorophenyl)-N-(2-pyridyl)methyl-1,4-dihydro[1,8]naphthylidin-4-one-3-carboxamide]
22 | 0.6 nM | – | – | COc1ccc(-n2cc(C(=O)Nc3c(Cl)cncc3Cl)c(=O)c3cccnc32)cc1 [Example 123, N-(3,5-Dichloropyridin-4-yl)-1-(4-methoxyphenyl)-1,4-dihydro[1,8]naphthyldin-4-one-3-carboxamide]
23 | 640 nM | – | – | COCCNC(=O)c1cn(-c2ccc(F)cc2)c2ncccc2c1=O [Example 59, 1-(4-fluorophenyl)-N-(2-methoxyethyl)-1,4-dihydro[1,8]naphthylidin-4-one-3-carboxamide]
24 | 3.1 nM | – | – | Cc1ccc(-n2cc(C(=O)Nc3c(Cl)cncc3Cl)c(=O)c3cccnc32)cc1 [Example 121, N-(3,5-Dichloroiyridin-4-yl)-1-(4-tolyl)-1,4-dihydro[18]naphthylidin-4-one-3-carboxamide]
25 | – | 100 nM | – | COc1ccc(C2CNC(=O)C2)cc1OC1CCCC1 (centres unmarked) [Rolipram, reference compound]
26 | 930 nM | – | – | CCOC(=O)c1cn(-c2cccc([N+](=O)[O-])c2)c2ncccc2c1=O [Example 19, Ethyl 1-(3-Nitrophenyl)-1,4-dihydro[1,8]naphthylidin-4-one-3-carboxylate]
27 | 500 nM | – | – | COc1ccccc1NC(=O)c1cn(-c2ccc(F)cc2)c2ncccc2c1=O [Example 76, 1-(4-Fluorohenyl)-N-(2-methoxyphenyl)-1,4-dihydro[1,8]naphthylidin-4-one-3-carboxamide]
28 | 650 nM | – | – | O=C(Nc1ccccc1-c1ccccc1)c1cn(-c2ccc(F)cc2)c2ncccc2c1=O [Example 100, N-(2-Biphenyl)-1-(4-fluorophenyl)-1,4-dihydro[1,8]naphthylidin-4-one-3-carboxamide]
29 | – | – | 400 nM | CC(C)(C)OC(=O)Nc1ncc(-n2cc(C(=O)Nc3ccncc3)c(=O)c3cccnc32)cn1 [Example 150, 1-(2-tert-Butyloxycarbonylaminopyrimidin-5-yl)-N-(4-pyridyl)-1,4-dihydro[1,8]naphthylidin-4-one-3-carboxamide]
